Source: US20040209315A1, “Methods to identify agents that increase or decrease UBP43 activity and methods for use of such agents” (priority 2003, published 2004)

Assays:
[1] = tested on: UBP43± and UBP43−/− bone marrow cells; assay: Liquid bone marrow cell culture, Trypan blue dye exclusion assay; format: cell-based, mice; settings: 10 ng/ml, 48 hours
Method: (a) Bone marrow cells isolated from UBP43+/+ and UBP43−/− mice were cultured in vitro in the presence or the absence of INFβ (100 units/ml) for 48 hours. TUNEL assay was performed to study the percentage of apoptosis cells. […] Cells were then subjected to Trypan blue dye exclusion assay. Each data point represents the mean of three independent experiments. Error bar represents standard deviation about the mean.
In vitro bone marrow cell culture.
TNFα and the type II IFN-IFNγ are commonly used to study bone marrow cell growth and apoptosis and in the analysis of various knockout mouse models.

[2] = tested on: hematopoietic cells transplanted from UBP43+/+ or UBP43−/− mice; assay: Bone marrow transplantation, flow cytometric analysis of CD45.2+ donor blood cells before and after poly(I—C) injection; format: in vivo
Text: (a) Hematopoietic cells transplanted from UBP43−/− mice to UBP43+/+ congenic strain mice are hypersensitive to poly(I—C) injection. Bone marrow cells (CD45.2+) from individual UBP43+/+ and UBP43−/− mice (n=4 for each group) were isolated and transplanted to lethally irradiated congenic strain mice (CD45.2−). Six months after the transplantation, flow cytometric analysis was done to determine the relative amount of peripheral blood cells contributed from the donor or recipient mice based on CD45-2 immunostaining before and after poly(I—C) injection (48 h). Flow cytometric analysis results from one representative mouse transplanted with UBP43+/+ or UBP43−/− bone marrow are presented. (b) UBP43−/− bone marrow cells are hypersensitive to IFNβ treatment. Bone marrow cells from UBP43+/+ and UBP43−/− mice were cultured at 2×10^4 cells/ml in CFU assay medium in the presence of various concentrations of IFNβ. Total colony number was counted after 12 days of culture. Results of a single representative experiment of two independent experiments are shown. […]
Bone marrow transplantation. […] The appearance of donor origin blood cells (CD45.2+) was detected by flow cytometric analysis with […] (FITC) conjugated CD45.2 antibodies (BD Biosciences). […]

[3] = tested on: UBP43+/+ and UBP43−/− mice; assay: Viability of mice after daily ip poly(I—C) injection; format: in vivo; settings: daily ip poly(I—C) 5 μg/g body weight
Method: (§1) (a) Seven mice of each group (UBP43 +/+ and UBP43−/−) were ip injected daily with poly(I—C). Viability was monitored daily. (b) UBP43+/+ and UBP43−/− mice (n=4 for each group) were ip injected daily with poly(I—C). The total number of white blood cells (WEC) in the peripheral blood was counted daily after each poly(I—C) injection. (c) UBP43+/+ and UBP43−/− mice (n=5 for each group) were either left untreated or were ip injected with poly(I—C) 24 h prior to bone marrow extraction. Bone marrow cells were counted in control and poly(I—C) injected group of mice (two femurs from each mouse).
(§2) Poly(I—C) injection and hematopoietic cell counting: Poly(I—C) (Sigma) was dissolved in phosphate buffered saline and intraperitoneally (ip) injected to mice at 5 μg/g body weight (gbw). Blood and bone marrow nucleated cells were counted in Turk solution (3% acetic acid and 0.01% crystal violet in H2O).
(§3) UBP43-null mice are sensitive to potent IFN-inducer poly(I—C). Injection with synthetic double stranded RNA-polyinosinic acid-polycytidylic acid (poly(I—C)) has been commonly used to induce endogenous IFN production in mice. […] There were dramatic decreases (over 90%) in the total number of white blood cells in peripheral blood and nucleated cells in bone marrow of UBP43−/− mice.

[4] = tested on: UBP43+/+ and UBP43−/− mice; assay: Hematopoietic cell counting (peripheral white blood cells, bone marrow nucleated cells) after poly(I—C) injection; format: in vivo
Method: as §1, §2, §3

Substance: TNF-α
- difference in cell death between UBP43± cells and UBP43−/− cells [1]: did not cause a significant difference

Substance: polyinosinic acid-polycytidylic acid [poly(I—C)]
- relative amount of CD45.2+ cells in the peripheral blood ([2]; UBP43+/+ donor, 48 h after poly(I—C) injection): did not change
- blood cells of the UBP43−/− genotype (CD45.2+) ([2]; UBP43−/− donor, 48 hours post administration, 79% before dosing): 12%
- viability ([3]; UBP43+/+ mice (n=7)): survived the course of treatment
- time within which all mice died post treatment ([3]; UBP43−/− mice (n=7)): ≤ 72 h
- decrease in number of total peripheral white blood cells ([4]; UBP43+/+ mice, ip poly(I—C)): 20%
- decrease in total bone marrow nucleated cells ([4]; UBP43+/+ mice, ip poly(I—C) 24 h prior to bone marrow extraction): 30%
- decrease in total number of white blood cells in peripheral blood ([4]; UBP43−/− mice, ip poly(I—C)): over 90%
- decrease in nucleated cells in bone marrow ([4]; UBP43−/− mice, ip poly(I—C) 24 h prior to bone marrow extraction): over 90%

Substance: IFNγ: type II IFN, proapoptotic cytokine (Peprotech)
- difference in cell death between UBP43± cells and UBP43−/− cells [1]: did not cause a significant difference
